One assay deals with Gαs mRNA in PBMCs. As to the kind of experiment: Gαs mRNA in PBMCs co-cultured with OT. Format: cell-based, human. The method, then:
(§1) Both Gαs and Gαq mRNA were measured after PBMCs were incubated with vehicle (untreated condition) and after co-culture with hormone. For some subjects, the PBMC quantity yielded insufficient mRNA for PCR analysis. Gαs PCR was completed on 10 ASD girls, 9 control girls, 10 ASD boys, and 9 control boys. Gαq PCR was completed on 10 ASD girls, 8 control girls, 10 ASD boys, and 9 control boys.
(§2) Samples were taken from the patients, as described in Example 1, and mRNA was isolated from cells exposed to oxytocin and analyzed for amount of mRNA expressing Gαs and Gαq.
(§3) PBMC isolation, hormone treatment and cell culture. PBMCs were isolated from heparinized blood using Histopaque 1077 (Sigma-Aldrich, St. Louis, Mo.). Briefly, 5 ml of blood was diluted 1:1 in PBS and carefully layered onto 3 ml of Histopaque 1077 in a 50 ml conical centrifuge tube. Tubes were centrifuged at 400 g for 30 min at RT. The buffy coat was removed from the tube and washed three times in complete RPMI without phenol red. Cell counts and viability were determined using Trypan blue. Cell viability was >95%. […]
(§4) RNA isolation and quantitation. […] RNA was examined by spectrophotometry and quantitated using the Ribogreen assay (Invitrogen, Carlsbad, Calif.). […] Ribogreen reagent (1:200) was added to samples and standards, and samples were read on a Bio-Tek FLx800 fluorescent plate reader. […]

Another assay relates to Gαq mRNA in PBMCs. As to the kind of experiment: Gαq mRNA in PBMCs co-cultured with OT. It counts as cell-based, human. As to the method:
as §1, §2, §3, §4

Assay [1] deals with Gαs and Gαq protein in PBMCs. As to the kind of experiment: G-protein expression (Gαs and Gαq) in PBMCs exposed to oxytocin (immunoblot). Format: cell-based, human. As to the method: Membrane preparation for membrane-associated proteins. For protein studies, PBMC's were manipulated at 4° C., as previously described in Example 4. PBMC's were individually homogenized (1:30, wt/vol) in ice-cold 0.25 M sucrose and 50 mM Tris-HCL, (pH 7.6) in a Dounce homogenizer, centrifuged twice at 800×g for 5 min before centrifugation of the supernatants at 30,000×g for 60 min. The pellet was resuspended in assay buffer and used directly in the binding assay. Protein concentration was determined by BCA protein assay kit (Pierce, Rockford, Ill.) using bovine serum albumin (BSA) as a standard.
Immunoblot analysis for membrane-associated proteins. Total membrane proteins were prepared as for receptor assays above. Samples were electrophoresed in 12% Tris-HCl resolving gels and transferred to 0.45 μm nitrocellulose membranes (Bio-Rad, Hercules, Calif.) by electroblotting. […] After three washes in TBST, membranes were incubated for 1 h in TBST and 1% non fat dry milk with horseradish peroxidase conjugated 2° antibodies (Jackson Immunoresearch, West Grove, Pa.). Bands were visualized by exposure of the membranes to autoradiographic film (MidSci, St. Louis, Mo.). The membranes were then stripped with Restore™ Western Blot Stripping Buffer (Pierce, Rockford Ill.) for 30 min at 37° C. and reprobed for actin protein as an internal control. The bands were quantified using a densitometer (GE Healthcare, Piscataway, N.J.).
Specific G protein antibodies. Specific Gαs and Gαq/11 antibodies made in rabbit without cross reactivity to other G proteins were used at a 1:500 dilution and originated from Santa Cruz Biotechnology (Santa Cruz, Calif.).
(A western blot detects proteins with antibodies after separation by electrophoresis.)

The test system of the next assay is male university students. The settings on record: intra-nasally; cited from earlier work.
Assay [2] concerns Gαs mRNA and Gαq mRNA in PBMCs. The experiment in a line: G-protein mRNA (Gαs and Gαq) in PBMCs exposed to oxytocin. Format: cell-based, human. The method, then:
as §1, §2
PBMC isolation, hormone treatment and cell culture. PBMCs were isolated from heparinized blood using Histopaque 1077 (Sigma-Aldrich, St. Louis, Mo.). Briefly, 5 ml of blood was diluted 1:1 in PBS and carefully layered onto 3 ml of Histopaque 1077 in a 50 ml conical centrifuge tube. Tubes were centrifuged at 400 g for 30 min at RT. The buffy coat was removed from the tube and washed three times in complete RPMI without phenol red. Cell counts and viability were determined using Trypan blue. Cell viability was >95%. Resultant PBMC's were suspended in complete RPMI with 10% charcoal stripped, dilapidated fetal calf serum (FCS) (Invitrogen, Carlsbad, Calif.) and added in 1 ml aliquots to 12 well plate with vehicle and oxytocin (10 ^−7M, 10 ^−8M, and 10^−9M) in RPMI+10% charcoal stripped, dilapidated FCS. Cells were incubated overnight (18-24 hr) before wells were harvested and rinsed. Cell suspensions were centrifuged at 500 g for 10 min at RT, and supernatant was aspirated. Buffer RLT Plus from the RNeasy Mini Plus Kit (QIAgen, Valencia, Calif.) was added to the cell pellets before vortexing to lyse cells. Samples were stored at −80° C. before RNA purification and isolation.
RNA isolation and quantitation. Samples were thawed, vortexed, and placed in QIAshredder columns. Columns were centrifuged for 2 min at 15000 g. The homogenized lysate was transferred to a gDNA Eliminator spin column and centrifuged for 30 sec at 9000 g. Equal volumes of 70% ethanol were added to the eluent. The mixture was transferred to RNeasy spin columns and centrifuged for 15 sec at 9000 g. Columns were washed with Buffer RW1 and the Buffer RPE, centrifuging for 15 sec at 9000 g, each time discarding the eluent. Buffer RPE was again added and columns centrifuged for 2 min at 9000 g to dry the column. Columns were then centrifuged for 1 min at 15000 g. RNA was eluted with the addition of Nuclease-free water and spun for 1 min at 9000 g. RNA was examined by spectrophotometry and quantitated using the Ribogreen assay (Invitrogen, Carlsbad, Calif.). Samples were diluted 1:200. Standards of 0, 20, 100, 500, and 1000 ng/ml were made from E. coli ribosomal RNA in TE buffer. Ribogreen reagent (1:200) was added to samples and standards, and samples were read on a Bio-Tek FLx800 fluorescent plate reader. RNA was diluted in nuclease-free water to a final concentration of 150 ng/ml cDNA.
cDNA construction and one-step real-time RT-PCR. Reverse transcription was performed using the SuperScript II Reverse Transcription Kit (Invitrogen, Carlsbad, Calif.). First, any residual DNA was digested away with DNase I for 15 min, with DNase activity subsequently quenched with 25 mM EDTA at 65° C. for 15 min. 10 mM dNTP and 0.5 ug/ml oligo (dT) were added to DNase-treated samples at 65° C. for 5 min. […]

The test system of a further assay is adults with ASD. The settings on record: cited from earlier work.
Assay [3] has as its system Gαs in murine spleen cells. The experiment in a line: Gαs expression in murine spleen cells exposed to OT (previous findings in this lab). Format: cell-based. The note with it: both sexes.
The mark [4] stands for this setting: children with ASD versus controls.

SMILES strings stand for the structures. “Also recorded” adds a separate entry of the source.

Consider `CC[C@H](C)[C@@H]1NC(=O)[C@H](Cc2ccc(O)cc2)NC(=O)[C@@H](N)CSSC[C@@H](C(=O)N2CCC[C@H]2C(=O)N[C@@H](CC(C)C)C(=O)NCC(N)=O)NC(=O)[C@H](CC(N)=O)NC(=O)[C@H](CCC(N)=O)NC1=O` [OT, Oxytocin], for which the “difference in Gαs mRNA expression between ASD and control PBMCs upon exposure to OT” value in the assay with Gαs mRNA in PBMCs (setting [4]) is on record as “no longer observed; also recorded: did not have the significantly increased Gαs mRNA”. Moreover, the “sex differences in Gαs expression with OT exposure” value with Gαs mRNA in PBMCs (girls versus boys, any group) is listed as “not augmented”. Further, in the assay on Gαq mRNA in PBMCs (setting [4]), the “difference in Gαq mRNA expression between ASD and control PBMCs upon exposure to OT” value is listed as “no longer significant”. Besides, the “sex differences in Gαq mRNA expression with OT” value in the assay with Gαq mRNA in PBMCs (girls versus boys) is reported as “not augmented”. Also, the “protein expression after exposure to oxytocin” value in assay [1] (children with autism) is reported as “not seen”; in assay [1] (females with autism), “upward trend”; in assay [1] (males with autism), “not observed”; in assay [1] (non-autistic patients) it was “went up”. Also, in the assay on male university students, the “trust and prosocial behavior” value was “might increase trust and prosocial behavior”. Moreover, the “mRNA pattern after exposure to oxytocin” value in assay [2] (autistic males, compared with control females before exposure) is on record as “more feminine pattern”. Also, the “mRNA levels after exposure to oxytocin” value in assay [2] (children with autism) is on record as “not seen”; in assay [2] (females with autism), “upward trend”; in assay [2] (males with autism), “not observed”; in assay [2] (non-autistic patients) it was “went up”. In addition, the affective speech comprehension result in the assay on adults with ASD (OT infusion) is “improved”. Moreover, the “severity and number of different types of repetitive behaviors” value in the assay on adults with ASD (intravenous OT infusion) was “decreased”. Also, in assay [3], the “Gαs expression with exposure to OT” value is listed as “c. Previous findings in this lab had found sex differences in Gαs in murine spleen cells as well as induction of Gαs expression in both sexes with exposure to OT,”.
